This note sets out measurements from US8349864B2, “Pyrano [3,2-C] pyridones and related heterocyclic compounds as pharmaceutical agents for treating disorders responsive to apoptosis, antiproliferation or vascular disruption, and the use thereof” (New Mexico Technical Research Foundation, priority 2009, dated 2013).

Assay [1] concerns Jurkat cells. The assay can be described thus: Flow cytometric cell cycle analysis (Vybrant Orange staining). The class given is cell-based, human. Conditions: for cell cycle arrest: Jurkat cell line, flow cytometric cell cycle analysis; for % relative DNA content G0/G1 / % relative DNA content G2/M / % relative DNA content S: Jurkat, 1 μM, 24 h, ± SD. From the text:
Our libraries of compounds exert their antiproliferative properties through inhibition of tubulin dynamics, thereby inducing mitotic arrest and initiating apoptosis in cancer cells. […] This effect is characteristic of antimitotic agents disrupting microtubule assembly.
(A flow cytometer gives signals particle by particle.)

For assay [2], the system named is Jurkat cells. Description: DNA laddering assay. It is filed as cell-based, human. The following applies: 36 h, 1.5% agarose gel. The method, then: Since endonuclease-mediated cleavage of nuclear DNA resulting in formation of oligonucleosomal DNA fragments (180-200 base pairs long) is a hallmark of apoptosis in many cell types, apoptosis was further investigated with the DNA laddering assay (FIG. 2). Jurkat cells were treated with DMSO (lane A), analogues 40 and 41 (lanes B and C), and paclitaxel (lane D) for 36 h. After that the cellular DNA was isolated and electrophoresed in a 1.5% agarose gel. […] No laddering was observed when the cells were treated with DMSO control.
FIG. 2 illustrates DNA laddering in Jurkat cells after 36 h of treatment. (A) DMSO control, (B) 40 at 1.5 μM, (C) 41 at 1.5 μM, (D) paclitaxel at 0.4 μM, and (E) Molecular weight marker (KB).

Another assay relates to MCF-7. The assay can be described thus: MTT cell viability assay, MCF-7 cells. The class given is cell-based. The following applies: Homo sapiens, MCF7, 48 h treatment, ± SD, two experiments, 8 replicates.
Assay [3] relates to Jurkat cells. The assay can be described thus: Light microscopy of morphological changes. It is filed as cell-based, human. The following applies: 1 μM, 2 h. As to the method:
Morphological changes of cells treated with potent analogues can be visually observed with light microscopy (FIG. 3).
FIG. 3 illustrates light microscopy pictures. Treatment of Jurkat cells with 40 (C) and 41 (D) for 2 hours induces formation of finger-like extensions (black arrows) and shriveling (white arrows). 0.1% DMSO (A) and a known anticancer agent (B) were used as controls. All compounds are used at 1 μM. The scale bar indicates 40 μm.

The test system of a further assay is HeLa. Description: MTT cell viability assay, HeLa cells. Conditions: Homo sapiens, 48 h treatment, ± SD, two experiments, 8 replicates. The class given is cell-based.
The test system of a further assay is tubulin. The assay can be described thus: In vitro tubulin polymerization (fluorescence). The following applies: relative to 0.05% DMSO control. It is filed as biochemical. The text has this: To obtain further support for the proposed antitubulin mechanism of action for our heterocycles, we assessed the effect of pyranoquinolones on in vitro tubulin polymerization. In this assay microtubule formation is monitored by the increase in fluorescence intensity of the reaction mixture.
FIG. 4 illustrates the effect of our compounds on in vitro tubulin polymerization.

Usually GI50 stands for the concentration giving 50% growth inhibition. The low end stands for more potent growth inhibition, the high end for less potent growth inhibition.

Structures are written as SMILES.

Take `COc1cc(C2C(C#N)=C(N)Oc3c2c(=O)n(C)c2ccccc32)cc(Br)c1O` (centres unmarked) [Compound 40, 2-Amino-4-(3-bromo-4-hydroxy-5-methoxyphenyl)-6-methyl-5-oxo-5,6-dihydro-4H-pyrano[3,2-c]quinoline-3-carbonitrile]: in the assay on Jurkat cells [1], the cell cycle arrest result is “pronounced cell cycle arrest in the G2/M phase”, the “% relative DNA content G0/G1” value is 27 ± 3%, the “% relative DNA content G2/M” value was 47 ± 3% and the “% relative DNA content S” value came to 22 ± 2%. In addition, the “DNA laddering in Jurkat cells” value in the assay with Jurkat cells [2] (1.5 μM) is given as “characteristic ladder pattern was obtained”. The concentration for 50% growth inhibition (GI50) in the assay with MCF-7 turned out to be 390 ± 160 nM. Besides, the “morphological (phenotypic) changes of Jurkat cells” value in the assay with Jurkat cells [3] was “formation of finger-like extensions and shriveling”. The compound further yielded a concentration for 50% growth inhibition (GI50) in the assay with HeLa of 47 ± 10 nM. Further, the “effect on in vitro tubulin polymerization” value (from here on “effect”) in the assay on tubulin (25 μM) was “completely suppress tubulin polymerization”.
As to `COc1cc(C2C(C#N)=C(N)Oc3c2c(=O)n(C)c2ccccc32)cc(Br)c1OC` (centres unmarked) [Compound 41, 2-Amino-4-(3-bromo-4,5-dimethoxyphenyl)-6-methyl-5-oxo-5,6-dihydro-4H-pyrano[3,2-c]quinoline-3-carbonitrile], in the assay on Jurkat cells [1], the cell cycle arrest entry is “pronounced cell cycle arrest in the G2/M phase”, the “% relative DNA content G0/G1” value amounted to 20 ± 2%, the “% relative DNA content G2/M” value stood at 49 ± 2% and the “% relative DNA content S” value is 28 ± 2%. Besides, in the assay with Jurkat cells [2] (1.5 μM), the “DNA laddering in Jurkat cells” value is given as “characteristic ladder pattern was obtained”. In the assay with MCF-7, this compound gave a GI50 of 380 ± 30 nM. Also, the “morphological (phenotypic) changes of Jurkat cells” value with Jurkat cells [3] was “formation of finger-like extensions and shriveling”. The compound further displayed a concentration for 50% growth inhibition (GI50) in the assay with HeLa of 14 ± 3 nM. In addition, the “effect” value in the assay on tubulin (25 μM) is on record as “completely suppress tubulin polymerization”.
Take `CC(=O)O[C@H]1C(=O)[C@@]2(C)[C@H]([C@H](OC(=O)c3ccccc3)[C@]3(O)C[C@H](OC(=O)[C@H](O)[C@@H](NC(=O)c4ccccc4)c4ccccc4)C(C)=C1C3(C)C)[C@]1(OC(C)=O)CO[C@@H]1C[C@@H]2O` [paclitaxel, reference compound]: in the assay with Jurkat cells [2] (0.4 μM), the “DNA laddering in Jurkat cells” value is recorded as “characteristic ladder pattern was obtained”. Besides, the “effect” value in the assay on tubulin (3 μM) is recorded as “promotes microtubule formation”.
